Measurements: patent US7709494B2, “4,5-diphenyl-pyrimidinyl-oxy or -mercapto substituted carboxylic acids, method for the production and use thereof as medicaments” (Sanofi-Aventis, priority 2006, dated 2010)

Each compound was assayed against T1, GPCR GPR40 (Homo sapiens, UniProt O14842) (assay: In vitro FLIPR assay with recombinant cells which express the GPCR GPR40 (agonist-induced intracellular Ca2+ change)). Conditions: recombinant HEK293 cells expressing GPR40; 100 μM test substance; percentage change relative to control (0%: no test substance; 100%: 10 μM reference agonist linoleic acid).
T1 construct: expressed in transfected cells; host or cells: HEK293
Type: cell-based
Protocol: In vitro FLIPR assay with recombinant cells which express the GPCR GPR40
Function-testing assays were carried out by means of the FLIPR technique (“Fluorescence Imaging Plate Reader”, Molecular Devices Corp.). For this purpose, agonist-induced changes in the intracellular concentration of Ca^2+ in recombinant HEK293 cells which expressed the GPCR. GPR40 were determined.
For the investigations, cells were seeded in 96-well microtiter plates (60 000 cells/well) and allowed to grow overnight. The medium was removed and the cells were incubated in buffer which contained the fluorescent dye fluo-4. After this loading with dye, the cells were washed, test substance was added, and changes in the intracellular Ca^2+ concentration were measured in the FLIPR instrument. Results have been presented as percentage change relative to the control (0%: no test substance added; 100%: 10 μM reference agonist linoleic acid added).

T1 sequence (O14842 whole entry): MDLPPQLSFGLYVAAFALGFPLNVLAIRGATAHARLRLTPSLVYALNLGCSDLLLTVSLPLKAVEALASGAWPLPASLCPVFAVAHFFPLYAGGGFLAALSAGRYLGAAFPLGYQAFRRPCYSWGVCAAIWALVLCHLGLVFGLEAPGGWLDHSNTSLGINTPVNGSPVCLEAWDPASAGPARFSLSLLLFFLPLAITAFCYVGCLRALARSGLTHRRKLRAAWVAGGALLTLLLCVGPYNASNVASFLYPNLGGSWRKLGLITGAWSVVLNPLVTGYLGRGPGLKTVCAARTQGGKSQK

| % activation @ 100 μM | Compound |
| --- | --- |
| 76% | O=C(O)[C@H]1CC[C@@H](COc2ncc(-c3ccccc3)c(-c3ccccc3)n2)C1 (relative stereo) [Example 3, cis-3-(4,5-Diphenylpyrimidin-2-yloxymethyl)cyclopentanecarboxylic acid] |
| 74% | O=C(O)[C@H]1CCC[C@@H](COc2ncc(-c3ccccc3)c(-c3ccccc3)n2)C1 [Example 1, (1S,3R)-3-(4,5-Diphenylpyrimidin-2-yloxymethyl)cyclohexanecarboxylic acid] |
| 66% | O=C(O)[C@H]1CCCC(Oc2ncc(-c3ccccc3)c(-c3ccccc3)n2)C1 (stereo partly drawn) [Example 6, (1S)-3-(4,5-Diphenylpyrimidin-2-yloxy)cyclohexanecarboxylic acid] |
| 101% | O=C(O)C1CC1CCCCCSc1ncc(-c2ccccc2)c(-c2ccccc2)n1 (stereo not drawn) [Example 7, 2-[5-(4,5-Diphenylpyrimidin-2-ylsulfanyl)pentyl]cyclopropanecarboxylic acid] |
| 101% | O=C(O)C1CC1CCCCOc1ncc(-c2ccccc2)c(-c2ccccc2)n1 (stereo not drawn) [Example 9, 2-[4-(4,5-Diphenylpyrimidin-2-yloxy)butyl]cyclopropanecarboxylic acid] |
| 5% | CCC(CCC1CC1C(=O)O)Oc1ncc(-c2ccccc2)c(-c2ccccc2)n1 (stereo not drawn) [Example 10, 2-[3-(4,5-Diphenylpyrimidin-2-yloxy)pentyl]cyclopropanecarboxylic acid] |
| 91% | cis-(4,5-Diphenylpyrimidin-2-yloxymethyl)cyclohexanecarboxylic acid [Example 2] |

| Compound | % activation @ 100 μM |
| --- | --- |
| O=C(O)C1CCC(COc2ncc(-c3ccccc3)c(-c3ccccc3)n2)CC1 (mixture of isomers) [Example 4, Cis/trans-4-(4,5-diphenylpyrimidin-2-yloxymethyl)cyclohexanecarboxylic cid] | 96% |
| O=C(O)CC12CC3CC(C1)CC(Sc1ncc(-c4ccccc4)c(-c4ccccc4)n1)(C3)C2 [Example 5, [3-(4,5-Diphenylpyriidin-2-ylsulfanyl)adamantan-1-yl]acetic acid] | 64% |
